Experimental findings from ChEMBL document CHEMBL6121040, “Synthesis and biological assessment of BUB1B inhibitors for the treatment of clear cell renal cell carcinoma” (Eur J Med Chem, 2025) are described below.

Activity calls are given as the source filed them. No cut-off for these calls is given here.

Series [1] concerns the target T1, Mitotic checkpoint serine/threonine-protein kinase BUB1 beta (Homo sapiens, UniProt O60566). The series is described as follows: Inhibition of recombinant BUB1B (unknown origin) incubated for 60 mins in presence of [gamma-33P]-ATP by microplate scintillation counter analysis.
The test system of series [2] is CAKI-1. The series is described as follows: Cytotoxicity against human CAKI-1 cells assessed as cell viability at 10 uM incubated for 1 day by MTT assay relative to control. It is filed as functional. Particulars: CAKI-1, 24 h, read-out: Activity. A general note: Formazan colour is commonly taken as a measure of viable cells.
In series [3] the test system is CAKI-1. Nature of the series: Cytotoxicity against human CAKI-1 cells assessed as reduction in cell viability incubated for 1 day by MTT assay. It is filed as functional, cell-based. The following applies: CAKI-1, 24 h.
Series [4] has as its system CAKI-1. The series is described as follows: Cytotoxicity against human CAKI-1 cells assessed as cell viability at 10 uM incubated for 3 day by MTT assay relative to control. Particulars: CAKI-1, 72 h, read-out: Activity. The format is functional.
Series [5] deals with CAKI-1. Nature of the series: Induction of apoptosis in human CAKI-1 cells assessed as increase in cleaved PARP level by measuring fold change at 10 uM incubated for 1 day by Western blot analysis (reference value: 1). It is filed as functional. (In western blotting, separated proteins are transferred to a membrane and probed.)
Series [6] concerns CAKI-1. The series is described as follows: Cytotoxicity against human CAKI-1 cells assessed as reduction in cell viability incubated for 3 days by MTT assay. It is filed as functional, cell-based.
Series [7] concerns CAKI-1. The series is described as follows: Cytotoxicity against human CAKI-1 cells assessed as necrotic cell death incubated for 3 days by LDH assay. It is filed as functional, cell-based. The following applies: CAKI-1, 72 h.
Series [8] concerns CAKI-1. The series is described as follows: Induction of apoptosis in human CAKI-1 cells assessed as decrease in Bcl-2 protein level by measuring fold change at 10 uM incubated for 1 day by Western blot analysis (reference value: 1). It is filed as functional.
Series [9] deals with CAKI-1. The series is described as follows: Induction of apoptosis in human CAKI-1 cells assessed as decrease in Bcl-2 protein level by measuring fold change at IC50 concentration incubated for 1 day by Western blot analysis (reference value: 1). The format is functional.
Series [10] deals with CAKI-1. Nature of the series: Induction of apoptosis in human CAKI-1 cells assessed as increase in cleaved caspase-8 protein level at 10 uM incubated for 1 day by Western blot analysis. The format is functional, cell-based.
Series [11] concerns CAKI-1. The series is described as follows: Induction of apoptosis in human CAKI-1 cells assessed as increase in cleaved caspase-3 protein level at 10 uM incubated for 1 day by Western blot analysis. It is filed as functional, cell-based.
In series [12] the test system is CAKI-1. The series is described as follows: Induction of apoptosis in human CAKI-1 cells assessed as increase in cleaved caspase-9 protein level at 10 uM incubated for 1 day by Western blot analysis. It is filed as functional, cell-based.
The subject of series [13] is CAKI-1. Nature of the series: Induction of apoptosis in human CAKI-1 cells assessed as increase in cleaved PARP level by measuring fold change at IC50 concentration incubated for 1 day by Western blot analysis (reference value: 1). It is filed as functional.
Series [14] in a line: Downregulation of BUB1B protein expression level in human CAKI-1 cells at 10 uM incubated for 1 day by Western blot analysis (Rvb =1). The format is functional.
A short description of series [15]: Downregulation of BUB1B protein expression level in human CAKI-1 cells at IC50 concentration incubated for 1 day by Western blot analysis (Rvb =1). The format is functional.
In series [16] the test system is CAKI-1. Nature of the series: Cytotoxicity against human CAKI-1 cells assessed as necrotic cell death incubated for 1 day by LDH assay. The following applies: CAKI-1, 24 h. The format is functional, cell-based.
Series [17] in a line: Cytotoxicity against human MRC5 cells assessed as cell viability at 5 uM incubated for 1 day relative to control. The format is toxicity, cell-based. The following applies: read-out: Activity.
Series [18] in a line: Cytotoxicity against human HaCaT cells assessed as cell viability at 5 uM incubated for 1 day relative to control. The format is toxicity, cell-based. Particulars: read-out: Activity.
Series [19] is described as follows: Cytotoxicity against human MRC5 cells assessed as cell viability at 1 uM incubated for 1 day relative to control. The format is toxicity, cell-based. The following applies: read-out: Activity.
Series [20] is described as follows: Cytotoxicity against human HaCaT cells assessed as cell viability at 1 uM incubated for 1 day relative to control. The following applies: read-out: Activity. The format is toxicity, cell-based.
Series [21] concerns the target T1, Mitotic checkpoint serine/threonine-protein kinase BUB1 beta. The series is described as follows: Destabilization of BUB1B in human CAKI-1 cells assessed as reduction in BUB1B protein level at 20 uM preincubated for 1 hrs followed by incubation under 45 degreeC for 3 mins by CETSA analysis (reference value: 1). It is filed as cell-based. The following applies: time 63.0 min.

T1 sequence (O60566 whole entry): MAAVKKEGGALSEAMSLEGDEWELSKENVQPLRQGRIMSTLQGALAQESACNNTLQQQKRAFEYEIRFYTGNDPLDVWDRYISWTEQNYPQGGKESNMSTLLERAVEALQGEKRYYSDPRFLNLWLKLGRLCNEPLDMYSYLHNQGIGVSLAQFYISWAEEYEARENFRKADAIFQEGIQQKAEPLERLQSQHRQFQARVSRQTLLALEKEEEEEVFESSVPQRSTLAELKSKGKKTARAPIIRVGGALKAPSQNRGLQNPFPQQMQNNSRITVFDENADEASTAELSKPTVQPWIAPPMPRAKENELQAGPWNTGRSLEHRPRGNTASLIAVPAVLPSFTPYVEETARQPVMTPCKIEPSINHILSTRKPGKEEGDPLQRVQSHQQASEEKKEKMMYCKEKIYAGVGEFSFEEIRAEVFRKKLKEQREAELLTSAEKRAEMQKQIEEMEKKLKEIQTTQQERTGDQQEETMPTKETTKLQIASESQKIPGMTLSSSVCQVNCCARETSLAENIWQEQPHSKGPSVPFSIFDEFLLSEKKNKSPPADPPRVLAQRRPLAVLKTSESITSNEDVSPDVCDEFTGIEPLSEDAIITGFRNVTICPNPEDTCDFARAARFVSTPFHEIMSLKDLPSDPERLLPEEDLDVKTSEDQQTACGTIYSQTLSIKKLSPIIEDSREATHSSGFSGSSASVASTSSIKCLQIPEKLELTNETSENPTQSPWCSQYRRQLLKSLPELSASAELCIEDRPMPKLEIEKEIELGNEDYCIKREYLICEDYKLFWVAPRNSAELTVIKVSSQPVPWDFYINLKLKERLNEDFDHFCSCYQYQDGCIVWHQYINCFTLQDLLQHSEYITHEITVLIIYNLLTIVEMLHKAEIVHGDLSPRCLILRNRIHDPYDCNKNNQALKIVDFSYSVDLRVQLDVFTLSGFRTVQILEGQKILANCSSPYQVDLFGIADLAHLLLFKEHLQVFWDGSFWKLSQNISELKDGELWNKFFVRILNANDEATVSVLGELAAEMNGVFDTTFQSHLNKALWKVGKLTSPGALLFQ

For the molecule `Cc1cnc(Nc2ccc(N3CCN(C)CC3)cc2)nc1Nc1cccc(S(=O)(=O)NC(C)(C)C)c1`, the IC50 amounted to 67.3 µM in series [1]; 1.5 µM with CAKI-1 [3]; 1.1 µM with CAKI-1 [6] (CAKI-1, 72 h); 23.9 µM in the series on CAKI-1 [16]. Further, the viability at 10 µM in the series on CAKI-1 [2] stood at 43.6%; in the series with CAKI-1 [4] it was 18.9%. The “fold change (FC)” value stood at 24.35 with CAKI-1 [5]; 0.28 with CAKI-1 [8]; 0.62 in the series with CAKI-1 [9]; 2.65 with CAKI-1 [13]; 0.02 in [14]; 0.14 in series [15]. Moreover, the fold change (FC) in [21] came out at 2.19. Further, the Activity result in the series on CAKI-1 [6] (time 3.0 day) is “Dose-dependent-effect”. Besides, the 50% effective concentration (EC50) in the series with CAKI-1 [7] was 6.6 µM. Further, the outcome with CAKI-1 [10], in the series with CAKI-1 [11] and with CAKI-1 [12] was Active. For the same molecule, the viability at 24 h, 5 µM in series [17] is 38.8%; in series [18] it was 39.4%. The viability at 24 h, 1 µM in series [19] turned out to be 107%; in series [20], 76.4%.

The IC50 is the concentration at which inhibition is half-maximal. Usually EC50 stands for the midpoint of the concentration-response curve.
